# Laboratory results from patent US20240360145A1, “PYRIMIDINE-2,4-DIAMINE DERIVATIVES AS WELL AS PREPARATION METHOD THEREFOR AND USE THEREOF” (LISEN THERAPEUTICS, INC., priority 2022, published 2024).
# Legend:
# Assay type in all cases: cell-based
# HCT116 (colon cancer) = experiment: Cell viability IC50 (CellTiter-Glo), HCT116; details: Homo sapiens, HCT-116, HCT116, 72 hours
# Method: (§1) The cancer cell lines were cultured to the logarithmic growth phase according to conventional culture methods, and the cells were inoculated into a 384-well plate at a density of 2,000 cells/well in a volume of 40 μl/well. The concentrations of added compounds were: […], 1.67 μM, 0.56 μM, 0.19 μM, 0.062 μM, 0.021 μM, 0.0069 μM, 0.0023 μM, 0.00076 μM, and 0 μM. After 72 hours, cell viability was detected using the CellTiter-Glo™ Detection Kit.
# NCI-H1792 cells = experiment: Cell viability IC50 (MTT), AMG510-resistant NCI-H1792 cells; details: Homo sapiens, NCI-H1792 cells (KRAS G12C)
# Method: Non-small cell lung cancer cell lines NCI-H1975, NCI-H1650, and NCI-H1792 were cultured in RPMI-1640 medium containing 10% fetal bovine serum and 1% penicillin-streptomycin. 1% sodium pyruvate was additionally added when culturing NCI-H1975 cells. All the cells were cultured in a constant temperature incubator containing 5% CO2 at 37° C.
# (1) The cells were cultured to the logarithmic growth phase. When the confluence reached about 90%, the cells were digested with 0.25% trypsin, and complete medium was added to collect the cells. After centrifugation at room temperature, the supernatant was discarded, and the cell precipitate was resuspended with fresh complete medium. […]
# (5) The medium was carefully aspirated off, 100 μl of DMSO was added to dissolve the precipitate formed by the reaction with MTT, shaking and mixing to mix the blue-violet crystals well, and the light absorbance value at 492 nm was read with a microplate reader.
# (6) IC50 of the compounds for different cells was calculated based on the light absorption value of each group. Specifically, the absorbance value under treatment with different concentrations of compounds was first subtracted from the absorbance value of the blank well, and then the absorbance value of the 0 μM group was taken as 100% to calculate the cell survival rate after treatment with different concentrations of compounds. […]
# OV-90 (ovarian cancer) = experiment: Cell viability IC50 (CellTiter-Glo), OV-90; details: Homo sapiens, OV-90, 72 hours
# Method: as §1
# [1] = test system: MDA-MB-231 (breast cancer); experiment: Cell viability IC50 (CellTiter-Glo), MDA-MB-231; details: Homo sapiens, MDA-MB-231, 72 hours
# Method: as §1
# LT015 primary cells = experiment: Cell viability IC50 (CCK-8), primary cells LT015 from small cell lung cancer bronchoscopic biopsy; details: LT015, CCK-8
# Method: (1) The tissue blocks obtained from the tumor patients were transferred from the preservation solution to the pre-cooled HBSS buffer containing antibiotics, and the tissue blocks were washed for three times with the pre-cooled HBSS buffer.
# (2) Tissue was sheared on ice with sterile surgical instruments until no obvious tissue blocks are visible to the naked eye, the tissue fluid was collected into a 15 ml centrifuge tube, and this process takes about 5 to 10 minutes.
# (3) Digestive enzymes (collagenase I, collagenase IV and neutral protease being mixed in a ratio of 1:1:1, a concentration of stock solution was 10 mg/ml, diluted with PBS buffer or HBSS buffer, and the use concentration was 1 mg/ml) were added to the centrifuge tube, and after mixing well by pipetting, the centrifuge tube was placed in a 37° C. constant temperature incubator for 1 to 2 hours.
# (4) High-glucose medium was added to the centrifuge tube to stop digestion. After mixing well, the cell precipitate was collected by centrifugation, and resuspended with MBM medium (Advanced DMEM-F12+20 ng/ml bFGF+50 ng/ml EGF+1% ITS-X+2% B27+10 μMY-27632+1% PS). The cell suspension was placed in a Matrigel-coated 24-well plate and cultured for 5 to 7 days. When the cell density in the well plate reaches 80-90%, the cells were sub-cultured into a 6 cm cell culture dish, and when they grew to a density of 80% to 90%, the cells were cryopreserved for preservation.
# (1) Primary cells from lung cancer pleural effusion within 5 generations were cultured to the logarithmic growth phase. When the confluence reached about 90%, the cells were digested with 0.25% trypsin, and complete culture medium was added to collect the cells. After centrifugation at room temperature, the supernatant was discarded, and the cell precipitate was resuspended with fresh complete culture medium. After counting, the cells were placed at room temperature for later use. The cells were inoculated into a 384-well plate at a density of 2000 cells/well with a volume of 40 μl/well. The wells at the outermost circle of the plate were not inoculated with cells, and instead, added with sterile water to reduce evaporation of the culture medium.
# (2) After overnight culture of the cells, the medium was discarded, and a fresh medium containing different concentrations of compounds was added at 200 μl/well. The dilution method of the compound was as follows: first the compound with the highest concentration of 10 μM was prepared, and then the compound was diluted for 3 times in sequence. […] At the same time, a blank control group was set up, in which only an equal volume of culture medium was added without adding cells. Five replicate wells were set up for each group. The cells were placed in the incubator for further culture.
# (3) After 72 hours, 8 μl of CCK-8 solution, which was double-diluted with 10 mM PBS, was added to each well, and the cells were shaken and placed in an incubator at 37° C. for further culture for 2 hours.
# (4) The light absorbance value at 450 nm was read using a microplate reader, and the IC50 was calculated according to the absorbance value. The calculation method was the same as above.
# (1) Sample information: PE039, PE052, and PE062 were all primary cell samples from pleural effusion of patients with small cell lung cancer, and LT015 was a primary cell sample from bronchoscopic biopsy of a patient with small cell lung cancer.
# (2) CCK-8 detection was used to detect the IC50 values of different medicaments (compounds).
# [2] = test system: KYSE-70 (esophageal cancer); experiment: Cell viability IC50 (CellTiter-Glo), KYSE-70; details: Homo sapiens, KYSE-70, 72 hours
# Method: as §1
compound,measurement,setting,value
"CN1CC2CCC(C1)N2Cc1ccc(Nc2ncc(Cl)c(Nc3ccccc3S(=O)(=O)N(C)C)n2)cc1 [Compound 8, 2-((5-chloro-2-((4-((3-methyl-3,8-diazabicyclo[3.2.1]octan-8-yl)methyl)phenyl)amino)pyrimidin-4-yl)amino)-N,N-dimethylbenzenesulfonamide]",IC50,HCT116 (colon cancer),9 nM
same,IC50,NCI-H1792 cells,40.6 nM
same,IC50,OV-90 (ovarian cancer),103 nM
same,IC50,[1],49.9 nM
same,IC50,LT015 primary cells,6.11 nM
same,IC50,[2],122 nM
